{"source": "patent US20170340905A1", "about": "“MACROCYCLIC KETONE AS MALODOR COUNTERACTING INGREDIENT” (Firmenich SA, priority 2014, published 2017)", "key": {"[1]": {"assay": "Sensory malodor reduction test, Sniffin' Sticks odor pens, bathroom malodor", "details": "for Average Perceived Overall Odor Intensity (APOOI) / Average Perceived Malodor Intensity (APMI): scale 0-10", "procedure": "(§1) The Compound 1, as defined above, was tested, using current sensory analysis methods, for its ability to reduce the perception of bathroom, tobacco, kitchen, pet and body malodors.\n(§2) In the following description, the test concentration of the malodor sample used in each case was selected so as to provide a perceived malodor intensity, when evaluated in Sniffin' Sticks odor pens as described below, that was approximately of the order of 6 units on the scale described under Section C below.\nBathroom malodor: 0.3% by weight in propylene glycol\n(§3) The test concentration of the Compound 1 used in each of the malodor reduction tests was selected so as to provide a perceived intensity, when evaluated in Sniffin' Sticks odor pens as described below, that was approximately of the order of 6 units on the scale described under Section C below. The concentration of Compound 1 that was perceived as comprising an odor intensity of about 6 when evaluated in Sniffin' Sticks odor pens was 16% by weight in propylene glycol.\n(§4) Stock solutions were prepared as follows: • Compound 1 32% by weight: 12.8 g of Compound 1 was mixed with 27.2 g of propylene glycol. • Bathroom malodor 0.6% by weight: 0.6 g of bathroom malodor was mixed with 99.4 g of propylene glycol. • Kitchen malodor 60% by weight: 12.0 g of kitchen malodor was mixed with 8.0 g of propylene glycol. • Body malodor 1% by weight: 1.0 g of body malodor was mixed with 99.0 g of propylene glycol. • Pet malodor 1% by weight: 1.0 g of pet malodor was mixed with 99.0 g of propylene glycol. • The tobacco malodor was used as is.\n(§5) Each sensory test comprised 3 samples: a malodor only sample; a test sample comprising a combination of […] and the test malodor; and, a Compound 1 only sample. The samples for the sensory tests were prepared as follows:\n(§6) Malodor only sample: in a separate beaker 3.0 g of malodor stock solution, was mixed with 3.0 g of propylene glycol. Once fully homogenized, 2.0 g of the resulting solution was applied to the absorbent fiber in the body of a Sniffin' Stick odor pen (origin: Burghart Messtechnik GmbH). The odor pen was immediately capped and allowed to equilibrate for 24 hours before use.\nas §6, with “Compound 1” for “Malodor”, “Compound 1” for “malodor”, “solution” for “solution,”\nas §6, with “Test samples:” for “Malodor only sample:”, “Compound 1” for “malodor”, “solution” for “solution,”, “malodor stock solution.” for “propylene glycol.”\n(§7) The samples were assessed by a panel of 19 trained panelists. By “trained panelists” we mean here individuals that had previously been screened for olfactive acuity and were experienced in rating the perfume and malodor intensity. Moreover, the panelists were prior acquainted with the malodor sample before carrying out the malodor reduction efficacy test.\n(§8) Each test comprised a malodor only sample, a Compound 1 only sample, and a test sample that comprised Compound 1 and the malodor. […]"}, "[2]": {"assay": "Sensory malodor reduction test, Sniffin' Sticks odor pens, kitchen malodor", "details": "for Average Perceived Malodor Intensity (APMI) / Average Perceived Overall Odor Intensity (APOOI): scale 0-10", "procedure": "as §1, §2\nKitchen malodor: 30% by weight in propylene glycol\nas §3, §4, §5, §6\nas §6, with “Compound 1” for “Malodor”, “Compound 1” for “malodor”, “solution” for “solution,”\nas §6, with “Test samples:” for “Malodor only sample:”, “Compound 1” for “malodor”, “solution” for “solution,”, “malodor stock solution.” for “propylene glycol.”\nas §7, §8"}, "[3]": {"assay": "Sensory malodor reduction test, Sniffin' Sticks odor pens, body malodor", "details": "for Average Perceived Malodor Intensity (APMI) / Average Perceived Overall Odor Intensity (APOOI): scale 0-10", "procedure": "as §1, §2\nBody malodor: 0.5% by weight in propylene glycol\nas §3, §4, §5, §6\nas §6, with “Compound 1” for “Malodor”, “Compound 1” for “malodor”, “solution” for “solution,”\nas §6, with “Test samples:” for “Malodor only sample:”, “Compound 1” for “malodor”, “solution” for “solution,”, “malodor stock solution.” for “propylene glycol.”\nas §7, §8"}, "[4]": {"assay": "Sensory malodor reduction test, Sniffin' Sticks odor pens, pet malodor", "details": "for Average Perceived Malodor Intensity (APMI) / Average Perceived Overall Odor Intensity (APOOI): scale 0-10", "procedure": "as §1, §2\nPet malodor: 0.5% by weight, in propylene glycol\nas §3, §4, §5, §6\nas §6, with “Compound 1” for “Malodor”, “Compound 1” for “malodor”, “solution” for “solution,”\nas §6, with “Test samples:” for “Malodor only sample:”, “Compound 1” for “malodor”, “solution” for “solution,”, “malodor stock solution.” for “propylene glycol.”\nas §7, §8"}, "[5]": {"assay": "Sensory malodor reduction test, Sniffin' Sticks odor pens, tobacco malodor", "details": "for Average Perceived Malodor Intensity (APMI) / Average Perceived Overall Odor Intensity (APOOI): scale 0-10", "procedure": "as §1\nThe tobacco malodor was prepared by extraction of cigarette debris, comprising: ash; filter; and, paper. The debris from 30 smoked Marlboro lied cigarettes (origin: Philip Morris International) was collected in a 500 ml glass powder jar with a screw closure. 300 ml of ethanol was added. The combination was mixed in a Turbula mixer for 8 hours and then filtered through a Whatman Grade 4 filter paper. The filtrate was used as the tobacco malodor.\nas §2\nTobacco malodor: 50% by weight in propylene glycol\nas §3, §4, §5, §6\nas §6, with “Compound 1” for “Malodor”, “Compound 1” for “malodor”, “solution” for “solution,”\nas §6, with “Test samples:” for “Malodor only sample:”, “Compound 1” for “malodor”, “solution” for “solution,”, “malodor stock solution.” for “propylene glycol.”\nThe samples were assessed by a panel of 19 trained panelists. […]"}, "[6]": {"system": "Morganella morganii URI62", "assay": "MIC test in 96 well plates", "assay_type": "cell-based", "details": "M. morganii, associated with urine/bathroom", "procedure": "(§9) Bacterial solutions of four bacterial strains were prepared for MIC test as follows. Stock cultures stored at -80° C. were subcultured onto agar plate media, and incubated at 37° C. for 24 h to obtain single colonies. Single colonies of the primary cultures were inoculated into broth media and incubated at 37° C., 160 rpm overnight. Aliquots of overnight cultures were inoculated into 50 ml of fresh broth media, and incubated at 37° C., 160 rpm. When the OD reached the target value for each strain (see Table 1), cells were harvested by centrifugation at 5000 rpm for 10 min, and then resuspended in the same fresh broth media at the same volume before the centrifugation. Aliquots (1.1 ml) of each cell suspension were diluted in 200 ml of the same broth media as the bacterial solutions for the MIC test. [table] Sample solutions of casmirone and reference material ([…]) were prepared as follows. Stock solutions of 1% and 20% were prepared in ethanol, and then seven serial dilutions of each stock solution were prepared in ethanol to obtain a total of 16 solutions of casmirone or the reference material. Aliquot (10 μl) of each solution was used for MIC test. The tested final concentrations of each material were 29, 44, 66, 99, 148, 222, 333, 500, 590, 900, 1300, 2000, 3000, 4500, 6700, 10000 ppm. The test material control was trans-hexenal, a known material for MIC tests and control tests (e.g. see Int J Food Microbiol. 2010 January 1;136(3):304-9). MIC test were performed in 96 well plates. […] Column 1 contained bacterial solution only (the positive growth control), and column 12 contained growth media only (the negative growth control). Aliquots (10 μl) of sample solutions were mixed with 190 μl of bacterial solutions in growth media, at concentrations of 10^5 to 10^6 cfu/ml, in wells of the 96 well plates. Three replicates for solution. The 96 wells plates were incubated at 37° C., 160 rpm overnight. After incubation, wells of 96 well plates were examined. Turbid wells were regarded as an indication of microbial growth. Minimal inhibition concentration (MIC) was determined as the lowest concentration where no growth was observed. Average MIC value of the three replicates was calculated against each strain (see Table 3)."}, "[7]": {"system": "Staphylococcus aureus DSMZ 1104", "assay": "MIC test in 96 well plates", "assay_type": "cell-based", "details": "S. aureus, associated with hygiene", "procedure": "as §9"}, "[8]": {"system": "Staphylococcus haemolyticus ATCC 114126", "assay": "MIC test in 96 well plates", "assay_type": "cell-based", "details": "S. haemolyticus, associated with body odor", "procedure": "as §9"}, "[9]": {"system": "Streptococcus agalactiae URI3", "assay": "MIC test in 96 well plates", "assay_type": "cell-based", "details": "S. agalactiae, associated with urine/bathroom", "procedure": "as §9"}, "[10]": {"details": "Compound 1 + Malodor vs Malodor Only"}, "[11]": {"details": "Compound 1 Only: 0.320 g Compound 1, 1.680 g propylene glycol, bathroom malodor test"}, "[12]": {"details": "Compound 1 + Malodor: 0.60 g kitchen malodor, 0.32 g Compound 1, 1.08 g propylene glycol"}, "[13]": {"details": "Compound 1 Only: 0.32 g Compound 1, 1.68 g propylene glycol, kitchen malodor test"}, "[14]": {"details": "Compound 1 + Malodor: 0.01 g body malodor, 0.32 g Compound 1, 1.67 g propylene glycol"}, "[15]": {"details": "Compound 1 Only: 0.32 g Compound 1, 1.68 g propylene glycol, body malodor test"}, "[16]": {"details": "Compound 1 + Malodor: 0.01 g pet malodor, 0.32 g Compound 1, 1.67 g propylene glycol"}, "[17]": {"details": "Compound 1 Only: 0.32 g Compound 1, 1.68 g propylene glycol, pet malodor test"}, "[18]": {"details": "Compound 1 + Malodor: 1.00 g tobacco malodor, 0.32 g Compound 1, 0.68 g propylene glycol"}, "[19]": {"details": "Compound 1 Only: 0.32 g Compound 1, 1.68 g propylene glycol, tobacco malodor test"}}, "note": "Marks after values point to notes of the source that are not given here.", "data": [{"compound": "O=C1CCC=CCCC=CCCC1", "note": "[Compound 1, 4,8-cyclododecadien-1-one]", "values": [{"measurement": "reducing the perceived intensity of bathroom malodor", "setting": "[1]; [10]", "value": "efficient"}, {"measurement": "Average Perceived Overall Odor Intensity (APOOI)", "setting": "[1]; Compound 1 + Malodor: 0.006 g bathroom malodor, 0.320 g Compound 1, 1.674 g propylene glycol", "value": 5.99}, {"measurement": "Average Perceived Malodor Intensity (APMI)", "setting": "[1]; Compound 1 + Malodor: 0.006 g bathroom malodor, 0.320 g Compound 1, 1.674 g propylene glycol, 19 panelists", "value": "1.61 *"}, {"measurement": "Average Perceived Malodor Intensity (APMI)", "setting": "[1]; [11]", "value": "0.91 *"}, {"measurement": "Average Perceived Overall Odor Intensity (APOOI)", "setting": "[1]; [11]", "value": 5.75}, {"measurement": "reducing the perceived intensity of kitchen malodor", "setting": "[2]; [10]", "value": "efficient"}, {"measurement": "Average Perceived Malodor Intensity (APMI)", "setting": "[2]; [12]", "value": "2.49 *"}, {"measurement": "Average Perceived Overall Odor Intensity (APOOI)", "setting": "[2]; [12]", "value": 5.51}, {"measurement": "Average Perceived Malodor Intensity (APMI)", "setting": "[2]; [13]", "value": "0.95 *"}, {"measurement": "Average Perceived Overall Odor Intensity (APOOI)", "setting": "[2]; [13]", "value": 5.78}, {"measurement": "reducing the perceived intensity of body malodor", "setting": "[3]; [10]", "value": "efficient"}, {"measurement": "Average Perceived Malodor Intensity (APMI)", "setting": "[3]; [14]", "value": "2.78 *"}, {"measurement": "Average Perceived Overall Odor Intensity (APOOI)", "setting": "[3]; [14]", "value": 5.61}, {"measurement": "Average Perceived Malodor Intensity (APMI)", "setting": "[3]; [15]", "value": "0.83 *"}, {"measurement": "Average Perceived Overall Odor Intensity (APOOI)", "setting": "[3]; [15]", "value": 6.39}, {"measurement": "reducing the perceived intensity of pet malodor", "setting": "[4]; [10]", "value": "efficient"}, {"measurement": "Average Perceived Malodor Intensity (APMI)", "setting": "[4]; [16]", "value": "4.84 *"}, {"measurement": "Average Perceived Overall Odor Intensity (APOOI)", "setting": "[4]; [16]", "value": 6.70}, {"measurement": "Average Perceived Malodor Intensity (APMI)", "setting": "[4]; [17]", "value": "0.93 *"}, {"measurement": "Average Perceived Overall Odor Intensity (APOOI)", "setting": "[4]; [17]", "value": 6.01}, {"measurement": "reducing the perceived intensity of tobacco malodor", "setting": "[5]; [10]", "value": "efficient"}, {"measurement": "Average Perceived Malodor Intensity (APMI)", "setting": "[5]; [18]", "value": "3.35 *"}, {"measurement": "Average Perceived Overall Odor Intensity (APOOI)", "setting": "[5]; [18]", "value": 5.85}, {"measurement": "Average Perceived Malodor Intensity (APMI)", "setting": "[5]; [19]", "value": "1.27 *"}, {"measurement": "Average Perceived Overall Odor Intensity (APOOI)", "setting": "[5]; [19]", "value": 6.07}, {"measurement": "activity in application", "setting": "[6]", "value": "(compound 1 is efficiently active in application)"}, {"measurement": "MIC", "setting": "[6]; Morganella morganii, URI62, average of three replicates, 37° C. overnight", "value": 900, "unit": "µg/mL"}, {"measurement": "activity in application", "setting": "[7]", "value": "(compound 1 is efficiently active in application)"}, {"measurement": "MIC", "setting": "[7]; Staphylococcus aureus, DSMZ1104, average of three replicates, 37° C. overnight", "value": 333, "unit": "µg/mL"}, {"measurement": "activity in application", "setting": "[8]", "value": "(compound 1 is efficiently active in application)"}, {"measurement": "MIC", "setting": "[8]; Staphylococcus haemolyticus, ATCC114126, average of three replicates, 37° C. overnight", "value": 345, "unit": "µg/mL"}, {"measurement": "activity in application", "setting": "[9]", "value": "(compound 1 is moderately active in application)"}, {"measurement": "MIC", "setting": "[9]; Streptococcus agalactiae, URI3, average of three replicates, 37° C. overnight", "value": 3430, "unit": "µg/mL"}]}]}
